ChEMBL document CHEMBL5385876, “Discovery of unglycosylated indolocarbazoles as ROCK2 isoform-selective inhibitors for the treatment of breast cancer metastasis” (Eur J Med Chem, 2023)
Active and inactive are the calls of the source. No cut-off for these calls is given here.

Key:
[1] = biological target: Rho-associated protein kinase 2 (Homo sapiens, UniProt O75116); assay: Binding affinity to ROCK2 in human MDA-MB- 231 cells assessed as stabilization at 100 uM and 52 to 61 degreeC incubated for 5 mins by CETSA; type: cell-based
[2] = Clearance in ICR mouse at 15 mg/kg, iv administered as single dose and measured for 8 hrs by LC-MS/MS analysis; type: ADME, organism-based; settings: in vivo
[3] = Volume of distribution at terminal state in ICR mouse at 15 mg/kg, iv administered as single dose and measured for 8 hrs by LC-MS/MS analysis; type: ADME, organism-based; settings: in vivo, read-out: Vz
MDA-MB-231 [4] = assay: Inhibition of cell migration in human MDA-MB-231 cells incubated for 48 hrs by scratch wound healing assay; type: functional, cell-based; settings: dose 1.25-10 µM
[5] = biological target: High affinity nerve growth factor receptor (Homo sapiens) (UniProt P04629); assay: Inhibition of human recombinant TRKA at 125 nM
[6] = test system: Rho-associated protein kinase 2 (Homo sapiens), O75116 [M87A]; assay: Binding affinity to N-terminal His10-StrepII tagged human ROCK2 M87A mutant catalytic domain (1 to 553 residues) expressed in Sf9 insect cells assessed as change in melting temperature at 50 uM by SYPRO orange dye based thermal shift assay
[7] = test system: Rho-associated protein kinase 2 (Homo sapiens), O75116 [K121A]; assay: Binding affinity to N-terminal His10-StrepII tagged human ROCK2 K121A mutant catalytic domain (1 to 553 residues) expressed in Sf9 insect cells assessed as change in melting temperature at 50 uM by SYPRO orange dye based thermal shift assay
[8] = biological target: Ribosomal protein S6 kinase alpha-6 (Homo sapiens) (UniProt Q9UK32); assay: Inhibition of human recombinant RSK4 at 125 nM
[9] = MRT (0 to infinity) in ICR mouse at 15 mg/kg, iv administered as single dose and measured for 8 hrs by LC-MS/MS analysis; type: ADME, organism-based; settings: in vivo
[10] = biological target: Mitogen-activated protein kinase kinase kinase 5 (Homo sapiens, UniProt Q99683); assay: Inhibition of ASK1 (unknown origin)
SK-OV-3 = assay: Inhibition of cell invasion in human SK-OV-3 cells at 1.25 to 10 uM incubated for 48 hrs by crystal violet staining based transwell assay; type: functional; settings: dose 1.25-10 µM
[11] = Half life in ICR mouse at 15 mg/kg, iv administered as single dose and measured for 8 hrs by LC-MS/MS analysis; type: ADME, organism-based; settings: in vivo
[12] = biological target: 3-phosphoinositide-dependent protein kinase 1 (Homo sapiens) (UniProt O15530); assay: Inhibition of human recombinant PDK1 at 125 nM
[13] = Drug uptake in lung of ICR mouse at 15 mg/kg, iv administered as single dose and measured after 0.25 to 4 hrs by LC-MS/MS analysis; type: ADME, organism-based; settings: in vivo, time 0.25-4 hrs
[14] = biological target: Signal transducer and activator of transcription 3 (Homo sapiens) (UniProt P40763); assay: Inhibition of STAT3 transcriptional activity in human MDA-MB-231 cells assessed as reduction in MMP2 mRNA level at 5 uM incubated for 24 hrs by qRT-PCR analysis; type: cell-based
[15] = biological target: Signal transducer and activator of transcription 3 (Homo sapiens) (UniProt P40763); assay: Inhibition of STAT3 activation in human MDA-MB-231 cells assessed as reduction in STAT3 phosphorylation at Y705 residue at 1.25 to 10 uM incubated for 24 hrs by Western blot analysis; type: cell-based; settings: dose 1.25-10 µM
MDA-MB-231 [16] = assay: Antimetastatic activity in human MDA-MB-231 cells assessed as effect on cell shapes at 5 uM incubated for 24 hrs by SEM analysis; type: functional, cell-based
[17] = MRT (0 to t) in ICR mouse at 15 mg/kg, iv administered as single dose and measured for 8 hrs by LC-MS/MS analysis; type: ADME, organism-based; settings: in vivo

Chain of Signal transducer and activator of transcription 3 (Homo sapiens) (P40763 whole entry): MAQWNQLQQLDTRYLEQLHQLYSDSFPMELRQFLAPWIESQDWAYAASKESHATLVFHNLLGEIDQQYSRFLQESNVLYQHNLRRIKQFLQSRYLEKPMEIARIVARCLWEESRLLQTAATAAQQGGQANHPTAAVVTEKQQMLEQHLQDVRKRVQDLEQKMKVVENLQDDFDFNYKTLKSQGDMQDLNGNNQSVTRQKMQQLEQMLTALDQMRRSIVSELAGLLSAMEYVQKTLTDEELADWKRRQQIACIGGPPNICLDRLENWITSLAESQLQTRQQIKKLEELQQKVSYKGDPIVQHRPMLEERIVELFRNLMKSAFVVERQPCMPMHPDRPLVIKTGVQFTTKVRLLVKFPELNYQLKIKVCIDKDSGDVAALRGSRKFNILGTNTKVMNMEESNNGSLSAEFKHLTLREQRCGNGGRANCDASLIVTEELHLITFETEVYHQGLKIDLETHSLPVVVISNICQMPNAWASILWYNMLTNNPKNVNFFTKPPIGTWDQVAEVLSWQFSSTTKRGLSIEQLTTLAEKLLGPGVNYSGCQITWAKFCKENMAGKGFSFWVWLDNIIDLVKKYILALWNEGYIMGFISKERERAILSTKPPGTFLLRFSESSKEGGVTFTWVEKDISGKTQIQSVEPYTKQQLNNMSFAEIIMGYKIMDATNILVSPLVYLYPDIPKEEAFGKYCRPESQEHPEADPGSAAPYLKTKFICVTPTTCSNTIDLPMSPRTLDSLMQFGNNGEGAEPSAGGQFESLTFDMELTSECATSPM
Chain of Ribosomal protein S6 kinase alpha-6 (Homo sapiens) (Q9UK32 whole entry): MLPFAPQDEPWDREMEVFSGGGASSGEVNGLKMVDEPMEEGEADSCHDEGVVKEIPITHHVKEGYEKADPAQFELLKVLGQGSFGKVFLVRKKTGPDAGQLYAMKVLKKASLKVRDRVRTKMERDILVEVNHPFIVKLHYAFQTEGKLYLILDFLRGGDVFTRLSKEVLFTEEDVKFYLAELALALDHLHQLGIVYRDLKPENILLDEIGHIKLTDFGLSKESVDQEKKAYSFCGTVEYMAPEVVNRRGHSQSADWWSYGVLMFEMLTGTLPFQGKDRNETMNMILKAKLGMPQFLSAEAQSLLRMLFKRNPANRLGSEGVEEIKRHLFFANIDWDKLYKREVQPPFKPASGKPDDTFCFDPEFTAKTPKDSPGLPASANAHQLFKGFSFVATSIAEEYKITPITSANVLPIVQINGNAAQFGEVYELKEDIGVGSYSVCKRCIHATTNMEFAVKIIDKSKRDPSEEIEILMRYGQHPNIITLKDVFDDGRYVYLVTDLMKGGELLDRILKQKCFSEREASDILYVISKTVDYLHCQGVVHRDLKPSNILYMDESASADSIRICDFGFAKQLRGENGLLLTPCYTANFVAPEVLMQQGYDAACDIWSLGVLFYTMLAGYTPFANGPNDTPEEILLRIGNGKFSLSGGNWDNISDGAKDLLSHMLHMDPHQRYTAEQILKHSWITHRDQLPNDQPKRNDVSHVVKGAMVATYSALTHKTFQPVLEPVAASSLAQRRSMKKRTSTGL
Chain of 3-phosphoinositide-dependent protein kinase 1 (Homo sapiens) (O15530 whole entry, looked up): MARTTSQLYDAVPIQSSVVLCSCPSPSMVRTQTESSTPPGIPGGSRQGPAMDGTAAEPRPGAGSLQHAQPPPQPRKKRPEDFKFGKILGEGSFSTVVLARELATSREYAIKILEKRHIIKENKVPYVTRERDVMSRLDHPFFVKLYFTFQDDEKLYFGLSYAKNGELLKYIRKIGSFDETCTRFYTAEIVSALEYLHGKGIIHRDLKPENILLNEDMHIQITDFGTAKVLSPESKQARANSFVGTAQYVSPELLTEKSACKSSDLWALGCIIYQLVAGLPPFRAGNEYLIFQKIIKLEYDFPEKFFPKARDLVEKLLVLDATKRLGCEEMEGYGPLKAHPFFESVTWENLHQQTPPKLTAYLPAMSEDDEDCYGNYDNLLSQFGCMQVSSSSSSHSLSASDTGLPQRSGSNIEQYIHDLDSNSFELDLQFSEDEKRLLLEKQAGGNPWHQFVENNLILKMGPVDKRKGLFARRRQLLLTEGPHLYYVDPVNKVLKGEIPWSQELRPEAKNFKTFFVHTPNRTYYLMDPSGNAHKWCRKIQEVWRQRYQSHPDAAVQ
Chain of Rho-associated protein kinase 2 (Homo sapiens), O75116 [K121A] (O75116 whole entry K121A, the tested form may be a part): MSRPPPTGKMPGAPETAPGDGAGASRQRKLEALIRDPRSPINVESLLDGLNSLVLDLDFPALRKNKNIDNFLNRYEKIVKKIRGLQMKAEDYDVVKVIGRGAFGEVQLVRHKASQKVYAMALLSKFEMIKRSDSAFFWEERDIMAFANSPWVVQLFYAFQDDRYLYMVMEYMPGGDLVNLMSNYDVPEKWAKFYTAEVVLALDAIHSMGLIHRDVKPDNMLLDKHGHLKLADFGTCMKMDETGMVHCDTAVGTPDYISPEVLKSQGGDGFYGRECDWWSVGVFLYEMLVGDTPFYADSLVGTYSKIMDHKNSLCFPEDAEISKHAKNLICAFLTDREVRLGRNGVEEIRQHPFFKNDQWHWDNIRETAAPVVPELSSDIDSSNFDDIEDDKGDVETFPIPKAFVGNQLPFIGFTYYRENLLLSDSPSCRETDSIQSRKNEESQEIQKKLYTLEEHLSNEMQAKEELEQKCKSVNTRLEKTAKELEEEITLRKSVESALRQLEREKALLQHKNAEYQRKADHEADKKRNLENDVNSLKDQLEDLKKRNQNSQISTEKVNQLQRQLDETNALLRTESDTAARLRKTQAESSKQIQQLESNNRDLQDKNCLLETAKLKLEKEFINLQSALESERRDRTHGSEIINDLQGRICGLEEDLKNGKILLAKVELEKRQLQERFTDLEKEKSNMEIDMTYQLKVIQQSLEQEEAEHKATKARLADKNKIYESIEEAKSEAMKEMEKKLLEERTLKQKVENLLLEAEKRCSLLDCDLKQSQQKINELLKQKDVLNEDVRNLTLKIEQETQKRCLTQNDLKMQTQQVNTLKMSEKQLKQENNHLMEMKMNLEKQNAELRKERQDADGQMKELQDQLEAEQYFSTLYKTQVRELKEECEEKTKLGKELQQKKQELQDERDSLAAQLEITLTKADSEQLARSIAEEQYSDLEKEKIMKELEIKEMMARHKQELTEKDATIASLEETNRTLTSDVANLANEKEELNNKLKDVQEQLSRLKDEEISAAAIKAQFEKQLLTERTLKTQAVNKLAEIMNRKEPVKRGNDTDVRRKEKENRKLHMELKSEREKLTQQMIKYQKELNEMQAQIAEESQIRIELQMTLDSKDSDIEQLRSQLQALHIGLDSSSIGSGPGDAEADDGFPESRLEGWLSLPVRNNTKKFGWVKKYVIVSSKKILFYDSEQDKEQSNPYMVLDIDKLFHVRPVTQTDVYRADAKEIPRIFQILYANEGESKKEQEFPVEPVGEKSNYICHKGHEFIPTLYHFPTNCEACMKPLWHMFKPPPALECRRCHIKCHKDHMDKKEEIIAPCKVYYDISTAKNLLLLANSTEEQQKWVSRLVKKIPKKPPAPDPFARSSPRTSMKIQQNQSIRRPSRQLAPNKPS
Chain of Mitogen-activated protein kinase kinase kinase 5 (Q99683 whole entry): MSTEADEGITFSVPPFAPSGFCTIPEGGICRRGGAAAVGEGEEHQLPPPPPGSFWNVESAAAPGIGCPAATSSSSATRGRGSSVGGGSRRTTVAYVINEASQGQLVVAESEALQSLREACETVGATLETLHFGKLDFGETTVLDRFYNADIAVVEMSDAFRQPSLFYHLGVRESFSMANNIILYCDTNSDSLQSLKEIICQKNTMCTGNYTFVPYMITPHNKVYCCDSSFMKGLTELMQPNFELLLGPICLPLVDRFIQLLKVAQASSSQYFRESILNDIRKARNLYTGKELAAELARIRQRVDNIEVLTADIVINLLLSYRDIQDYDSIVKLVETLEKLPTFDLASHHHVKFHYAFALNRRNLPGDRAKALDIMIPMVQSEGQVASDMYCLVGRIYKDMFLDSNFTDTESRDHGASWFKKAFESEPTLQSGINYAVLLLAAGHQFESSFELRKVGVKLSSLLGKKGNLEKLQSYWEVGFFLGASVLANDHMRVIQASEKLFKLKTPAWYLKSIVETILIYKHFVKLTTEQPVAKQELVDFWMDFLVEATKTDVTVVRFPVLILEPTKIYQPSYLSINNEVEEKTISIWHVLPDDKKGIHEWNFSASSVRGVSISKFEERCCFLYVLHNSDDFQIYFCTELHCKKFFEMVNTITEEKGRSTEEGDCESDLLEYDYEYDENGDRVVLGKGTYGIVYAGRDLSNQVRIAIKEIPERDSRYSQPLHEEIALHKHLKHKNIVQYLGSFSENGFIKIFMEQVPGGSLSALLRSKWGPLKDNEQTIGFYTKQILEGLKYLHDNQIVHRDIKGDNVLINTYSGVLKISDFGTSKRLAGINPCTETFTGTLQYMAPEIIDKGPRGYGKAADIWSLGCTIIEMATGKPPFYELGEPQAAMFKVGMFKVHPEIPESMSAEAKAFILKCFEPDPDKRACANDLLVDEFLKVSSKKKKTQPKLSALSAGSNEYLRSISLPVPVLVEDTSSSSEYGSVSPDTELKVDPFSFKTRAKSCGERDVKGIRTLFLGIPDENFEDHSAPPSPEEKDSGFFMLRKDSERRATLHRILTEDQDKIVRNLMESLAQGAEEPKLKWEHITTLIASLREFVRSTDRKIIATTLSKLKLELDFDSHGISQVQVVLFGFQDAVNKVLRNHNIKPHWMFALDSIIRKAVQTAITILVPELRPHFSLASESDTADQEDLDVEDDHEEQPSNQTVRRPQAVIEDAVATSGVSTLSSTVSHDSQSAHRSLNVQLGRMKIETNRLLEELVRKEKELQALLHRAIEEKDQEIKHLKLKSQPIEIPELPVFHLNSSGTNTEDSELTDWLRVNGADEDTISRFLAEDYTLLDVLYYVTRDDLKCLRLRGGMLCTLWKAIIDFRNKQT
Chain of Rho-associated protein kinase 2 (O75116 whole entry, looked up): as the sequence (O75116 whole entry K121A, the tested form may be a part) above, with A121K counted along it
Chain of Rho-associated protein kinase 2 (Homo sapiens), O75116 [M87A] (O75116 whole entry M87A, the tested form may be a part): as the sequence (O75116 whole entry K121A, the tested form may be a part) above, with M87A, A121K counted along it

O=C1NCc2c1c1c3cc(O)ccc3[nH]c1c1[nH]c3ccccc3c21
Activity [1]: Active | clearance [2]: 29.3 mL/min/kg | Vd [3]: 4.87 L/kg | inhibition (MDA-MB-231 [4]): Dose-Dependent Effect | inhibition [5]: Active | Activity [6]: inactive | Activity [7]: inactive | inhibition [8]: Active | MRT inf [9]: 10.8 min | IC50 [10]: 944 nM | inhibition (SK-OV-3): Active | half-life [11]: 90.6 min | inhibition [12]: Active | Drug uptake [13]: Active | inhibition [14]: Active | inhibition [15]: Active | Activity (MDA-MB-231 [16]): Active | MRT last at 8 h [17]: 10.8 min
